Where only a bound is given, the exact number is not on record here.

A word on the IC50: it is the concentration that inhibits the measured activity by half.

The test system of one assay is NCIH929.1 cells. Kind of assay: Cell viability assay for Table 2 (CellTiter-Glo 2.0, ATP quantification, 96 hr). The conditions noted are these: 96 h, NCIH929.1 cell viability, 96 hr, top concentration 1 μM, 14 points half log titration; read-out: IC50. The assay is classed as cell-based. The text has this:
Cell Viability Assay for Table 2
CellTiter-Glo® 2.0 Assay was purchased from Promega (Madison, Wis., USA). NCIH929.1 cell line was purchased from ATCC (Manassas, Va., USA). Cell culture flasks and 384-well microplates were acquired from VWR (Radnor, Pa., USA).
In general terms: ATP-based viability assays read luminescence as a measure of living cells.
On to `O=C1CCC(N2C(=O)c3cccc4c(Cc5ccc(CN6CCOCC6)cc5)ccc2c34)C(=O)N1` (single isomer, unassigned) [Compound 220, 3-(6-(4-(morpholinomethyl)benzyl)-2-oxobenzo[cd]indol-1(2H)-yl)piperidine-2,6-dione], for which the IC50 is less than 1 nM. Still for that read-out and setting: with `CC1(CN2CCC(n3cc(Cc4ccc5c6c(cccc46)C(=O)N5C4CCC(=O)NC4=O)cn3)CC2)CC1` (single isomer, unassigned) [Compound 234, 3-[6-[[1-[1-[(1-methylcyclopropyl)methyl]-4-piperidyl]pyrazol-4-yl]methyl]-2-oxo-benzo[cd]indol-1-yl]piperidine-2,6-dione] the figure was less than 1 nM. Same read-out and setting: with `CC1(CN2CCC(n3cc(Cc4ccc5c6c(cccc46)C(=O)N5C4CCC(=O)NC4=O)cn3)CC2)CCC1` (single isomer, unassigned) [Compound 236, 3-[6-[[1-[1-[(1-methylcyclobutyl)methyl]-4-piperidyl]pyrazol-4-yl]methyl]-2-oxo-benzo[cd]indol-1-yl]piperidine-2,6-dione] the figure was less than 1 nM; with `CC1(n2cc(Cc3ccc4c5c(cccc35)C(=O)N4C3CCC(=O)NC3=O)cn2)CCN(C(=O)C23COC(C2)C3)CC1` (single isomer, unassigned) [Compound 238, 3-[6-[[1-[4-methyl-1-(2-oxabicyclo[2.1.1]hexane-4-carbonyl)-4-piperidyl]pyrazol-4-yl]methyl]-2-oxo-benzo[cd]indol-1-yl]piperidine-2,6-dione], less than 1 nM. The same measure, in the same setting: then `O=C1CCC(N2C(=O)c3cccc4c(Cc5cnn(C6CCN(C7CCC78CCC8)CC6)c5)ccc2c34)C(=O)N1` (single isomer, unassigned) [Compound 244, 3-{2-Oxo-6-[1-(1-spiro[3.3]hept-1-yl-piperidin-4-yl)-1H-pyrazol-4-ylmethyl]-2H-benzo[cd]indol-1-yl}-piperidine-2,6-dione], with less than 1 nM. As for `O=C1CCC(N2C(=O)c3cccc4c(Cc5ccc(CN6CCN(c7ccc(Cl)cc7F)CC6)cc5)ccc2c34)C(=O)N1` (single isomer, unassigned) [Compound 254, 3-[6-[[4-[[4-(4-chloro-2-fluoro-phenyl)piperazin-1-yl]methyl]phenyl]methyl]-2-oxo-benzo[cd]indol-1-yl]-piperidine-2,6-dione], the IC50 is less than 1 nM.

The same assay, now with this note: NCIH929.1 cell viability, 96 hr, top concentration 1 μM, 14 points half log titration; read-out: IC50.
With `CC1(CN2CCC(n3cc(Cc4ccc5c6c(cccc46)C(=O)N5C4CCC(=O)NC4=O)cn3)CC2)CC1` (single isomer, unassigned) [Compound 235, 3-[6-[[1-[1-[(1-methylcyclopropyl)methyl]-4-piperidyl]pyrazol-4-yl]methyl]-2-oxo-benzo[cd]indol-1-yl]piperidine-2,6-dione], the IC50 is less than 1 nM.

As to `CC1(CN2CCC(n3cc(Cc4ccc5c6c(cccc46)C(=O)N5C4CCC(=O)NC4=O)cn3)CC2)CCC1` (single isomer, unassigned) [Compound 237, 3-[6-[[1-[1-[(1-methylcyclobutyl)methyl]-4-piperidyl]pyrazol-4-yl]methyl]-2-oxo-benzo[cd]indol-1-yl]piperidine-2,6-dione], the IC50 was less than 1 nM.

As to `CC1(n2cc(Cc3ccc4c5c(cccc35)C(=O)N4C3CCC(=O)NC3=O)cn2)CCN(C(=O)C23COC(C2)C3)CC1` (single isomer, unassigned) [Compound 239, 3-[6-[[1-[4-methyl-1-(2-oxabicyclo[2.1.1]hexane-4-carbonyl)-4-piperidyl]pyrazol-4-yl]methyl]-2-oxo-benzo[cd]indol-1-yl]piperidine-2,6-dione], the IC50 was less than 1 nM. The same measure, in the same setting: with `O=C1CCC(N2C(=O)c3cccc4c(Cc5cnn(C6CCN(C7CCC78CCC8)CC6)c5)ccc2c34)C(=O)N1` (single isomer, unassigned) [Compound 245, 3-{2-Oxo-6-[1-(1-spiro[3.3]hept-1-yl-piperidin-4-yl)-1H-pyrazol-4-ylmethyl]-2H-benzo[cd]indol-1-yl}-piperidine-2,6-dione] the figure was less than 1 nM.

For the origin of these results see patent US20230082430A1 (C4 Therapeutics, Inc., priority 2019, published 2023).
